Test results: patent US4138492A, “Aromatic amides of heterocyclic compounds and therapeutic compositions containing same” (priority 1974, dated 1979)
Counter-ions that a name gives are not always drawn. Like-named read-outs stand apart in the source and are kept apart here.

Columns and labels:
[1] = system: apomorphine-induced gnawing; experiment: Antiapomorphine activity (apomorphine-induced gnawing) in the rat; assay type: in vivo
Excerpt: A number of the compounds of the present invention were screened in parallel with metoclopramide for potential anti-emetic effects against apomorphine-induced gnawing in the rat and as local anaesthetics on the rat sciatic nerve (Table I).
*Antiapomorphine activity in rat scored as […]

[2] = Pharmacokinetics after oral administration of high doses of the malate salt; assay type: in vivo
[3] = system: healthy male volunteers; experiment: Acute tolerance following intramuscular and intravenous administration in humans; assay type: in vivo
Protocol: Another study has been made to investigate the acute tolerance of the malate salt of Clebopride following intramuscular and intravenous administration in humans.
The subjects used were healthy male volunteers between 20 and 24 years of age and were divided into 8 groups and dosed with the test compound according to the following scheme:
Group I: 1 mg intramuscular per day for 5 days
Group II: 1.5 mgs intrasmuscular per day for 5 days
Group III: 2 mgs intramuscular per day for 5 days
Group IV: 0.25 mg intravenously per day for 5 days
Group V: 0.50 mg intravenously per day for 5 days
Group VI: 1 mg intravenously per day for 5 days
Group VII: 1.5 mgs intravenously per day for 5 days
Group VIII: 2 mgs intravenously per day for 5 days
The parameters evaluated were subjective symptoms; psychic disturbances; neurological disturbances; autonomic symptoms; digestive disturbances; urogenital disturbances; skin and mucous membranes; pulse; blood pressure; temperature; other side effects; blood analysis--leucocytes formula, hemoglobin content, erythrocyte sedimentation rate, glucose, cholesterol, urea, hepatic function tests, transaminasas; and urine analysis--density, albumin, sediment.

[4] = in vivo; conditions: rat, po
[5] = system: apomorphine-induced vomiting; experiment: Apomorphine-induced vomiting in the dog; assay type: in vivo; conditions: Canis lupus familiaris, po, per os, Table II, read-out: ED50 (95% confidence limits), apomorphine induced vomiting
[6] = system: convulsions induced by strychnine; experiment: Strychnine-induced convulsions in the mouse; assay type: in vivo
[7] = system: incoordination; conditions: mouse, in vivo
[8] = system: spontaneous motor activity; conditions: mouse, in vivo
[9] = system: gastric emptying time in humans; experiment: Gastric emptying in humans, evaluated by radiologist; assay type: in vivo; design: key to effect on gastric emptying: +: no effect; ++: moderate effect; +++: good effect; ++++: maximum effect; conditions: 10-20 mgs; as a guide
Excerpt: The evaluation was based on the subjective opinion of the radiologist in terms of the time required for the appearance of peristaltic waves and their capacity to evacuate. the stomach, according to the following scheme:

[10] = system: catatonia in rats; conditions: rat, in vivo
[11] = system: oxotremorine; conditions: mouse, in vivo
[12] = Rattus norvegicus; read-out: Antiapomorphine in rat
[13] = Rattus norvegicus, po; per os; Table I; read-out: ED50 Values
[14] = compared with metoclopramide; from Table I

COc1cc(N)c(Cl)cc1C(=O)NC1CCN(CC=Cc2ccccc2)CC1 [Compound 16, N-[4'-(1'-cinnamyl)-piperidyl]-2-methoxy-4-amino-5-chlorobenzamide hydrochloride]
minimal effective dose [1, 12]: 25 mg/kg

COc1cc(NC(C)=O)c(Cl)cc1C(=O)NC1CCN(Cc2ccccc2)CC1 [Compound 1, N-[4'-(1'-benzyl)piperidyl]-2-methoxy-4-acetamido-5-chlorobenzamide]
ED50 [1, 13]: ~25 mg/kg
minimal effective dose [1, 12]: 12.5 mg/kg

COc1cc(NC(=O)CCl)c(Cl)cc1C(=O)NC1CCN(Cc2ccccc2)CC1 [Compound 3, N-[4'-(1'-benzyl)piperidyl]-2-methoxy-4-(α-chloroacetamido)-5-chlorobenzamide hydrochloride]
ED50 [1, 13]: < 25 mg/kg
minimal effective dose [1, 12]: 6.25 mg/kg
activity as an anti-emetic [1, 14]: more active as an anti-emetic

COc1ccccc1CN1CCC(NC(=O)c2cc(Cl)c(N)cc2OC)CC1 [Compound 20, N-[4'-(1'-o-methoxy-benzyl)-piperidyl]-2-methoxy-4-amino-5-chloro-benzamide]
minimal effective dose [1, 12]: 25 mg/kg

O=C(CCl)Nc1ccc(C(=O)NC2CCN(Cc3ccccc3)CC2)cc1 [Compound 6, N-[4'-(1'-benzyl)piperidyl]-4-(α-chloroacetamido) benzamide hydrochloride]
minimal effective dose [1, 12]: 50 mg/kg

COc1cc(N)c(Cl)cc1C(=O)NC1CCN(Cc2ccccc2Cl)CC1 [Compound 21, N-[4'-(1'-o-chlorobenzyl)-piperidyl]-2-methoxy-4-amino-5-chloro-benzamide hydrochloride]
minimal effective dose [1, 12]: 25 mg/kg

COc1ccc(CN2CCC(NC(=O)c3cc(Cl)c(N)cc3OC)CC2)cc1 [Compound 18, N-[4'-(1'-p-methoxy-benzyl)-piperidyl]-2-methoxy-4-amino-5-chloro-benzamidehydrochloride]
minimal effective dose [1, 12]: 3.12 mg/kg
activity as an anti-emetic [1, 14]: more active as an anti-emetic

COc1cc(NC(=O)C(F)(F)F)ccc1C(=O)NC1CCN(Cc2ccccc2)CC1 [Compound 7, N-[4'-(1'-benzyl)piperidyl]-2-methoxy-4-(α,α,α-trifluoroacetamido) benzamide hydrochloride]
ED50 [1, 13]: < 25 mg/kg
minimal effective dose [1, 12]: 25 mg/kg

COc1cc(N)c(Cl)cc1C(=O)NC1CCN(Cc2cccc(Cl)c2)CC1 [Compound 17, N-[4'-(1'-m-chlorobenzyl)-piperidyl]-2-methoxy-4-amino-5-chloro-benzamide hydrochloride]
minimal effective dose [1, 12]: 12.5 mg/kg

COc1cc(N)c(Cl)cc1C(=O)NC1CCN(Cc2ccccc2)CC1 [malate salt of Clebopride, N-[4'-(1'-benzyl)piperidyl]-2-methoxy-4-amino-5-chlorobenzamide malate]
absorption ([2]; high doses): good absorption
appearance of metabolites in blood ([2]; high doses): rapid appearance of metabolites in blood
peak levels ([2]; high doses): rapidly appearing peak levels
plasma concentrations ([2]; high doses): relatively low plasma concentrations
first pass metabolism and/or uptake in the liver ([2]; suggested): extensive first pass metabolism and/or uptake take place in the liver
side effects ([3]; Group I: 1 mg intramuscular per day for 5 days, four subjects): one case of slight sleepiness was noted from the second day of treatment
side effects ([3]; Group II: 1.5 mgs intramuscular per day for 5 days, four subjects): Tiredness, sleepiness and fatigue in three of the four subjects in Group II accompanied with slight depression
side effects ([3]; Group III: 2 mgs intramuscular per day for 5 days, four subjects): Three of the four subjects in Group III showed sleepiness, fatigue and depression followed by euphoria
blood and urine analysis ([3]; Groups II and VII): no significant variations
dose dependence of side effects ([3]; Groups IV to VIII, intravenous): not to be dose dependent
side effects ([3]; Groups IV to VIII: 0.25 to 2 mgs intravenously per day for 5 days): Sleepiness, fatigue and depression of medium intensity were seen in many patients
additional side effects ([3]; Groups VII and VIII: 1.5 and 2 mgs intravenously per day for 5 days): some degree of sweating, hypersalivation and dryness of the mouth were variously seen

CN(C)CCCN1c2ccccc2Sc2ccc(Cl)cc21 [Chlorpromazine, reference compound]
TD50 [4]: 12.3 mg/kg
ED50 ([1]; Rattus norvegicus, po, read-out: Antiapomorphine Activity, Rats, ED50 (95% confidence limits)): 7.95 mg/kg
minimal effective dose ([1]; Rattus norvegicus, read-out: Antiapomorphine in rat): 6.25 mg/kg

COc1cccc(CN2CCC(NC(=O)c3cc(Cl)c(N)cc3OC)CC2)c1 [Compound 13, N-[4'-(1'-m-methoxy-benzyl)-piperidyl]-2-methoxy-4-amino-5-chloro-benzamidehydrochloride]
minimal effective dose [1, 12]: 25 mg/kg

COc1cc(NC(=O)CCl)ccc1C(=O)NC1CCN(Cc2ccccc2)CC1 [Compound 5, N-[4'-(1'-benzyl)piperidyl]-2-methoxy-4-α-chloroacetamidobenzamide hydrochloride]
minimal effective dose [1, 12]: 25 mg/kg

CCN(CC)CCNC(=O)c1cc(Cl)c(N)cc1OC [Metoclopramide, reference compound]
TD50 [4]: 93 mg/kg
ED50 [1, 13]: ~6 mg/kg
ED50 ([1]; Rattus norvegicus, po; rats; per os; Table III; read-out: Antiapomorphine Activity, Rats, ED50 (95% confidence limits)): 11.8 mg/kg
minimal effective dose [1, 12]: 12.5 mg/kg
ED50 [5]: 0.343 mg/kg
inhibition of convulsions induced by strychnine [6]: neither Clebopride nor metoclopramide appear to inhibit convulsions induced by strychnine
incoordination [7]: cause incoordination
spontaneous motor activity [8]: inhibit spontaneous motor activity
effect on gastric emptying [9]: +++
antiemetic doses compared with those causing catatonia [10]: at doses which are far removed from those causing catatonia
salivation and tremors [11]: capable of causing salivation and tremors

COc1cc(N)c(Cl)cc1C(=O)NC1CCN(Cc2ccc(Cl)cc2)CC1 [Compound 12, N-[4'-(1'-p-chlorobenzyl)-piperidyl]-2-methoxy-4-amino-5-chloro-benzamide hydrochloride]
minimal effective dose [1, 12]: 3.12 mg/kg
activity as an anti-emetic [1, 14]: more active as an anti-emetic

COc1cc(N)ccc1C(=O)NC1CCN(Cc2ccccc2)CC1 [Compound 8, N-[4'-(1'-benzyl)-piperidyl]-2-methoxy-4-aminobenzamide dihydrochloride]
ED50 [1, 13]: < 25 mg/kg
minimal effective dose [1, 12]: 6.25 mg/kg
activity as an anti-emetic [1, 14]: more active as an anti-emetic

COc1cc(NC(=O)CN2CCCCC2)c(Cl)cc1C(=O)NC1CCN(Cc2ccccc2)CC1 [Compound 4, N-[4'-(1'-benzyl)piperidyl] -2-methoxy-4-α-(1"-piperidyl) acetamido-5-chlorobenzamide dihydrochloride]
ED50 [1, 13]: ~12 mg/kg
minimal effective dose [1, 12]: 12.5 mg/kg

COc1cc(N)c(Cl)cc1C(=O)NC1CCN(Cc2cccs2)CC1 [Compound 14]
minimal effective dose [1, 12]: 12.5 mg/kg

COc1ccc(S(N)(=O)=O)cc1C(=O)NC1CCN(Cc2ccccc2)CC1 [N-[4'-(1'-benzyl)piperidyl]-2-methoxy-5-sulphamoylbenzamide hydrochloride]
antiapomorphine activity in the rat ([1]; even at high doses): do not exhibit antiapomorphine activity in the rat even at high doses

COc1cc(N)c(Cl)cc1C(=O)NC1CCN(Cc2ccc3c(c2)OCO3)CC1 [Compound 15]
minimal effective dose [1, 12]: 6.25 mg/kg
activity as an anti-emetic [1, 14]: more active as an anti-emetic

COc1cc(N)c(Cl)cc1C(=O)NC1CCN(C(c2ccccc2)c2ccccc2)CC1 [Compound 19, N-[4'-(1'-diphenyl-methyl)-piperidyl]-2-methoxy-4-amino-5-chloro-benzamide hydrochloride]
minimal effective dose [1, 12]: 50 mg/kg

COc1ccc(Cl)cc1C(=O)NC1CCN(Cc2ccccc2)CC1 [Compound 10, N-[4'-(1'-benzyl)piperidyl]-2-methoxy-5-chlorobenzamide hydrochloride]
minimal effective dose [1, 12]: 50 mg/kg

COc1cc(NC(=O)C(F)(F)F)c(Cl)cc1C(=O)NC1CCN(Cc2ccccc2)CC1 [Compound 9, N-[4'-(1'-benzyl)piperidyl]-2-methoxy-4-(α,α, α-trifluoroacetamido)-5-chlorobenzamide hydrochloride]
ED50 [1, 13]: < 25 mg/kg
minimal effective dose [1, 12]: 3.12 mg/kg
activity as an anti-emetic [1, 14]: more active as an anti-emetic
